Publication PMC9901178 (bioRxiv, 2023)

Columns and labels:
PKC = PKC activity by western blot of phosphorylated pan-PKC substrates; type: cell-based, human; details: Go6983 5 μM, HEK293/GC-A^+/AT1^+ cells
[1] = test system: HEK293/GC-A^+/AT1^+ cells; assay: Intracellular cGMP generation in HEK293/GC-A+/AT1+ cells; type: cell-based, human; details: ANP 10^−8 M, ANGII 10^−8 M

## COc1ccc2c(c1)c(C1=C(c3c[nH]c4ccccc34)C(=O)NC1=O)cn2CCCN(C)C [Go6983]
PKC
  PKC activity, phosphorylated status of pan-PKC substrates: effectively inhibited PKC activity
[1]; Go6983 5 μM
  Rescue of the suppression effect of ANGII on ANP-induced cGMP: significantly rescued

## CCCCC(=O)N(Cc1ccc(-c2ccccc2-c2nnn[nH]2)cc1)[C@H](C(=O)O)C(C)C [valsartan]
[1]; valsartan 1 μM
  Rescue of the suppression effect of ANGII on ANP-induced cGMP: significantly rescued
